Reference: patent US12115157B2, “3-phenoxyazetidin-1-yl-heteroaryl pyrrolidine derivatives and the use thereof as medicament” (Boehringer Ingelheim International GmbH, priority 2021, dated 2024)

Legend:
[1] = biological target: hERG channel (Homo sapiens (Human), UniProt Q12809); assay: hERG channel assay (whole-cell patch clamp); format: cell-based; details: HEK293 cells stably transfected with hERG cDNA
From the text: hERG Channel inhibition of compounds of the present invention was investigated as follows:
HEK (human embryonic kidney) 293 cells were stably transfected with hERG cDNA. Cells determined for use in patch clamp experiments were cultivated without antibiotic.
Cells were superfused with a bath solution containing (mM): NaCl (137), KCl (4.0), MgCl2 (1.0), CaCl2(1.8), Glucose (10), HEPES (10), pH 7.4 with NaOH. Patch pipettes were made from borosilicate glass tubing using a pipette and filled with pipette solution containing (mM): K-aspartate (130), MgCl2(5.0), EGTA (5.0), K2ATP (4.0), HEPES (10.0), pH 7.2 with KOH. Resistance of the microelectrodes was typically in the range between 2 MΩ and 5 MΩ.
Membrane currents were recorded using an EPC-10 patch clamp amplifier (HEKA Electronics, Lambrecht, FRG) and PatchMaster software (HEKA). hERG-mediated membrane currents were recorded at typically 28° C., using the whole-cell configuration of the patch-clamp technique. Transfected HEK293 cells were clamped at a holding potential of −60 mV and hERG-mediated inactivating tail currents were elicited using a pulse pattern with fixed amplitudes (activation/inactivation: 40 mV for 2000 ms; recovery: 120 mV for 2 ms; ramp to 40 mV in 2 ms; inactivating tail current: 40 mV for 50 ms) repeated at 15 s intervals. During each inter-pulse interval 4 pulses scaled down by a factor of 0.2 were recorded for a P/n leak subtraction procedure. Rs compensation was employed up to a level that safely allows recording devoid of ringing. The remaining uncompensated Rs was recorded as well as actual temperature and holding current.
The concentrations of the test item were applied sequentially on each of the different cells investigated. A steady state level of baseline current was measured for at least 5 sweeps prior to the application of the first test article concentration. The test item was dissolved in DMSO to yield a stock solution of 1000-fold the highest final concentration. This stock was diluted further in DMSO to stock solutions of 1000-fold the remaining final concentrations. Final dilutions in extracellular buffer were prepared freshly from these stocks by a 1:1000 dilution step each before starting the experiments.
Peak current amplitudes were measured 3 ms after the ramp to +40 mV. For baseline and each concentration, the peak currents of the three last sweeps before application of the next concentration were averaged. Residual currents (I/I0) were calculated for each cell as the fraction of actual average peak current and average baseline peak current. Current inhibition was expressed as […]. Current inhibition for all cells was reported as mean ±SD. If possible, from mean current inhibition data the IC50 was estimated based on the Hill equation using a least squares procedure.

[2] = test system: human hepatocytes; assay: Metabolic stability in human hepatocytes; format: in vitro ADME; details: human hepatocyte suspension, 1 μM; predicted hepatic clearance as percentage of hepatic blood flow
Procedure: The metabolic degradation of a test compound was assayed in a human hepatocyte suspension. After recovery from cryopreservation, human hepatocytes were diluted in Dulbecco's modified eagle medium (supplemented with 3.5 μg glucagon/500 mL, 2.5 mg insulin/500 mL, 3.75 mg hydrocortisone/500 mL, 5% human serum) to obtain a final cell density of 1.0×10^6 cells/mL or 4.0×10^6 cells/mL, depending on the metabolic turnover rate of the test compound.
Following a 30 minutes preincubation in a cell culture incubator (37° C., 10% CO2), test compound solution was spiked into the hepatocyte suspension, resulting in a final test compound concentration of 1 μM and a final DMSO concentration of 0.05% (v/v).
The cell suspension was incubated at 37° C. (cell culture incubator, horizontal shaker) and samples were removed from the incubation after 0, 0.5, 1, 2, 4 and 6 hours. Samples were quenched with acetonitrile (containing internal standard) and pelleted by centrifugation. The supernatant was transferred to a 96-deepwell plate, and prepared for analysis of decline of parent compound by HPLC-MS/MS.
The percentage of remaining test compound was calculated using the peak area ratio (test compound/internal standard) of each incubation time point relative to the time point 0 peak area ratio. The log-transformed data were plotted versus incubation time, and the absolute value of the slope obtained by linear regression analysis was used to estimate in vitro half-life (T1/2).
In vitro intrinsic clearance (CLint) was calculated from in vitro T1/2 and scaled to whole liver using a hepatocellularity of 120×10^6 cells/g liver, a human liver per body weight of 25.7 g liver/kg as well as in vitro incubation parameters, applying the following equation: CL_[…]_IN VIVO[mL/min/kg]=(CL_[…][μL/min/10^6 cells]×hepatocellularity[10^6 cells/g liver]×liver factor[g/kg body weight])/1000
Hepatic in vivo blood clearance (CL) was predicted according to the well-stirred liver model considering an average liver blood flow (QH) of 20.7 mL/min/kg: CL[mL/min/kg]=CL_[…]_IN VIVO[mL/min/kg]×hepatic blood flow[mL/min/kg]/(CL_[…]_IN VIVO[mL/min/kg]+hepatic blood flow[mL/min/kg])
Results were expressed as percentage of hepatic blood flow: QH[%]=CL[mL/min/kg]/hepatic blood flow[mL/min/kg])

[3] = test system: primary human hepatocytes; assay: In vitro metabolite profiling in primary human hepatocytes with or without proadifen; format: in vitro ADME; details: for % Parent of drug-related material: incubations in primary human hepatocytes, 1 μM test compound; for Contribution of amide hydrolysis to metabolism (incl. secondary metabolites): primary human hepatocytes, abundance of deacetylated metabolites relative to all metabolites
Procedure: In vitro metabolite profiling to evaluate the involvement of non-CYP-enzyme-mediated metabolic pathways such as hydrolysis in addition to CYP-mediated pathways is based on the semiquantitative analysis of the formation of prototypic metabolites in incubations with liver microsomes (with and without beta-nicotinamide adenine dinucleotide phosphate, NADPH), primary human hepatocytes (with and without the pan-CYP inhibitor proadifen) and recombinant CYP enzymes.
An additional measure to identify CYP-independent metabolic pathways is the use of the pan-CYP inhibitor proadifen in incubations of the test compound with human hepatocytes. In presence of proadifen, the CYP-related pathways are inhibited and metabolites would primarily be generated via non-CYP pathways.
The involvement of non-CYP-enzymes in metabolic transformations of the test compound was further investigated using primary human hepatocytes in suspension in presence or absence of the pan-CYP inhibitor proadifen (50 μM final incubation concentration). After recovery from cryopreservation, human hepatocytes were incubated in Dulbecco's modified eagle medium supplemented with 3.5 μg glucagon/500 ml, 2.5 mg insulin/500 ml and 3.75 mg/500 ml hydrocortisone containing 5% (v/v) human serum.
Following a 30 min preincubation in a cell culture incubator (37° C., 10% CO2) with or without 50 μM proadifen, test compound solution was spiked into the hepatocyte suspension to obtain a final cell density of 1.0*10^6 to 4.0*10^6 cells/ml (depending on the metabolic turnover rate of the compound observed with primary human hepatocytes), a final test compound concentration of 1 μM, and a final DMSO concentration of 0.05% (v/v).
The cells were incubated for six hours (incubator, horizontal shaker) and samples were removed from the incubation after 0, 0.5, 1, 2, 4 or 6 hours, depending on the metabolic turnover rate. Samples were quenched with acetonitrile and pelleted by centrifugation. The supernatant was transferred to a 96-deepwell plate, evaporated under nitrogen, and resuspended prior to bioanalysis by liquid chromatography-high resolution mass spectrometry for identification of putative metabolites.
The contribution of hydrolysis was calculated based on the abundance of the respective deacetylated metabolite(s) of the compounds of the present invention relative to all metabolites observed in incubations with human hepatocytes.

[4] = test system: human plasma proteins; assay: Human plasma protein binding assay (equilibrium dialysis); format: in vitro ADME; details: 1 μM, 2 hours, 37° C.
Procedure: Equilibrium dialysis (ED) technique was used to determine the approximate in vitro fractional binding of test compounds to plasma proteins. Dianorm Teflon dialysis cells (micro 0.2) were used. Each dialysis cell consists of a donor and an acceptor chamber, separated by an ultrathin semipermeable membrane with a 5 kDa molecular weight cut-off. Stock solutions for each test compound were prepared in DMSO at 1 mM and serially diluted to obtain a final test concentration of 1 μM. The subsequent dialysis solutions were prepared in plasma (supplemented with NaEDTA as anticoagulant), and aliquots of 200 μL test compound dialysis solution in plasma were dispensed into the donor (plasma) chambers. Aliquots of 200 μL dialysis buffer (100 mM potassium phosphate, pH 7.4) were dispensed into the buffer (acceptor) chamber. Incubation was carried out for 2 hours under rotation at 37° C. for establishing equilibrium.
At the end of the dialysis period, aliquots obtained from donor and acceptor chambers, respectively, were transferred into reaction tubes, spiked with Internal Standard solution and processed for HPLC-MS/MS analysis. Analyte concentrations were quantified in aliquots of samples by HPLC-MS/MS against external calibration curves.
Percent bound was calculated using the formula: % bound=(plasma concentration−buffer concentration/plasma concentration)×100

Chain of hERG channel (Q12809 whole entry): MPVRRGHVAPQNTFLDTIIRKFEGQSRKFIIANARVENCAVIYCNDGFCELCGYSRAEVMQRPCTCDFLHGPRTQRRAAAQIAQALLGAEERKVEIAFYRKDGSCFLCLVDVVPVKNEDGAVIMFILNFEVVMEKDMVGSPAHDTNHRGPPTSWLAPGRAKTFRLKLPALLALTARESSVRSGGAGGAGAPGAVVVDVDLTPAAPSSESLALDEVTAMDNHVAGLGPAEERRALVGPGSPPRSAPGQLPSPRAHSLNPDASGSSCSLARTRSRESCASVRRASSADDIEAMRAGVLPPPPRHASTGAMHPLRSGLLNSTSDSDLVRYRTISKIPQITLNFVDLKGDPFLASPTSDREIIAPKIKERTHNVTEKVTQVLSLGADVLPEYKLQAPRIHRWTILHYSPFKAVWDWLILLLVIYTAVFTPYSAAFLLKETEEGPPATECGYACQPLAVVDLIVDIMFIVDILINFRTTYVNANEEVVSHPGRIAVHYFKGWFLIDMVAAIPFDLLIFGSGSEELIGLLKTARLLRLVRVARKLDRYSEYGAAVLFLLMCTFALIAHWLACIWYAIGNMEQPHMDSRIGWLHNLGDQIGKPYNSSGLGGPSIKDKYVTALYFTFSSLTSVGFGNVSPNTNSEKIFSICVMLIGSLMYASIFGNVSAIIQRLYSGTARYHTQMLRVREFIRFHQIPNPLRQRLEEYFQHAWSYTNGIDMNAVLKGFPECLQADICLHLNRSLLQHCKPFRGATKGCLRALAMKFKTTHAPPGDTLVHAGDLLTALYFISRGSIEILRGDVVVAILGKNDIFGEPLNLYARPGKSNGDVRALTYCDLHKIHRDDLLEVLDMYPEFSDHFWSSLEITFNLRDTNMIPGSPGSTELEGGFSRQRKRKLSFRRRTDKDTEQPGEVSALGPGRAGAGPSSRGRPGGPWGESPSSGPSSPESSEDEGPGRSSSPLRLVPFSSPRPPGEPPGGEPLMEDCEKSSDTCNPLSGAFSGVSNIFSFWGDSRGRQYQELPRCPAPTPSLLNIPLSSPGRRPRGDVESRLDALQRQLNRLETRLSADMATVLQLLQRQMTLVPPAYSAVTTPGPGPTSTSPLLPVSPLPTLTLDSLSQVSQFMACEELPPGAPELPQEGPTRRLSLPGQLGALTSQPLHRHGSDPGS

| Human HepStab [2] [% QH] | % Parent of drug-related material [3] [%] | Contribution of amide hydrolysis to metabolism (incl. secondary metabolites) [3] [%] | Hu PPB [4] [% bound] | SMILES | IC50 [1] [µM] |
| --- | --- | --- | --- | --- | --- |
| 9.2 | 84 | 19 | 79.7 | CC(=O)N1C[C@H](NC(=O)c2nccnc2N2CC(Oc3ccc(F)c(F)c3)C2)C(F)(F)C1 [Example 8b] | > 10 |
| <4.1 | 70 | 25 | 92.8 | CC(=O)N1C[C@H](NC(=O)c2nsnc2N2CC(Oc3ccc(F)c(F)c3)C2)C(F)(F)C1 [Example 13b] | > 10 |
